Experimental data taken from patent US12502344B2, “Deodorants comprising alkylamido and alkenylamido-morpholinium compositions” (Colonial Chemical, Inc., priority 2021, dated 2025).

Experiment: Deodorization evaluation, forced-preference panel test of acetic acid malodor on cotton balls
Details: approx. 50 mg acetic acid on cotton ball in closed 32 oz jar; sprayed with 0.25 g, 0.5 g, 2.0 g and 5 g of approx. 0.8% by weight active in water; equilibrated 2 hrs; ten panelists; FIG. 1
Protocol: Deodorization Evaluations. Forced Preference Tests.
In the deodorization studies, two substances were tested for their ability to deodorize malodor: 1) Soyaethyl Morpholinium Ethosulfate (U.S. Pat. No. 4,851,214); and 2) Soyamidopropyl Ethylmorpholinium Ethosulfate (from this invention). These two products are Products 1 and 2, respectively, in FIG. 1. Both materials contain a quaternized morpholinium functionality within the deodorant molecule. All test formulations were approximately 0.8% by weight of active deodorizer/sequestrant in water.
Both products were tested as follows: Approximately 50 milligrams of acetic acid were placed on cotton balls (approximately 0.63 g in weight). The cotton balls were placed in 32 oz plastic jars, one per jar, and the lids were screwed on. After equilibrating for 4 hours the cotton balls were sprayed with predetermined amounts (0.25 g, 0.5 g, 2.0 g and 5 g) of deodorizing spray formulations and placed back in closed containers where they equilibrated for 2 hrs. In forced-preference testing, ten panelists were asked to open each jar and rate each on a scale from 1 to 10 with 10 being the highest level of acetic acid detected. The results of those ratings appear in FIG. 1 where the ratings given for each test substance is graphed versus the weight in grams of deodorizing formulations that had been applied to each cotton ball. […]

Row | Molecule | perceivable malodor (odor rating on a scale from 1 to 10, 10 being the highest level of acetic acid detected)
1 | Soyamidopropyl Ethylmorpholinium Ethosulfate [Product 2] | reduced the perceivable malodor in a concentration-dependent fashion
2 | CCCCCCCC/C=C\CCCCCCCC[N+]1(CC)CCOCC1 [Product 1, Soyaethyl Morpholinium Ethosulfate] | reduced the perceivable malodor in a concentration-dependent fashion
